Assay results from patent US20230165965A1, “NEW COUMARIN-POLYMER CONJUGATES AND USES THEREOF” (Onyel Biotech S.r.l., priority 2020, published 2023).
Like-named read-outs stand apart in the source and are kept apart here. Each block holds one compound with its values, some of them ahead of it.

Key:
[1] = Atomic force measurement (AFM) of hydrogel Young's modulus; format: physicochemical; settings: 1-photon UV mediated cycloaddition
Description: With the aim to provide glass surface HCCA-groups for covalent bonding HCC-branched polymers solutions were drop-cast onto glass coverslip previously functionalized with HCCA- as described in Section 10. HCC-4arm PEG and HCC-8arm PEG were dissolved in PBS (300 mg/mL) at room temperature under agitation. HCC-Gel was dissolved in PBS (100 mg/mL) under agitation at 60° C. for 10 min. When coverslips were used, a second coverslip was placed on top of the drop of HCC-polymeric solutions to limit water evaporation during the irradiation process. […] Laser power is measured before objective back aperture, corresponding to about 1% of the power on the sample plane. […]
For crosslinking reaction analysis, 5 μL CMMC-4 arm PEG (300 mg/mL) or CMMC-Gel (100 mg/mL) solution was located in a humid chamber at 3 cm from a 365 nm UV LED Gen 2 Emitter LZ4-04UV00 (Led Engin) and irradiated for different minutes as reported. When CMMC-Gel solution was analysed at different concentrations (100 mg/mL, 120 mg/mL, 140 mg/mL, 160 mg/mL, 180 mg/mL and 200 mg/mL), 5 μL of solution was located in a humid chamber at 3 cm from a 365 nm UV LED Gen 2 Emitter LZ4-04UV00 (Led Engin) and irradiated for 3 minutes. […]
The Young's modulus was calculated applying a fit of the Hertz model to the force curve, assuming a Poisson ratio of 0.5. […]

[2] = system: Murine muscle-derived stem cells (MuSC)
Description: Cells were expanded for 1 passage at 37° C. in cell incubator, using proliferating medium composed by DMEM supplemented with 20% horse serum, 10% fetal bovine serum (Gibco), 1% chicken embryo extract (Sera Laboratories International), bFGF ([…], Invitrogen #PHG0264) and 1% Pen/Strep (Thermofisher). […] Samples were cultured in proliferating media and analyzed 2 days after 3D bioprinting (cell directionality was quantified as reported above). […] After 5 days of culture in proliferating medium, differentiation medium (DMEM supplemented with 2% horse serum and 1% Pen/Strep) was used for the following 5 days of cell culture. After 10 days, samples were fixed in 4% (w/v) paraformaldehyde (PFA, Sigma-Aldrich) in PBS for 7 min at room temperature and maintained at 4° C. in PBS until use.
(§1) ImageJ software were used for adjustments of levels and contrast, maximum and standard deviation intensity projections, 3D reconstructions and thresholding to create binary mask used for directionality and ferret angle measurements. To quantify the directionality of i3D bioprinted cells, at least 9 fluorescence images of independent biological triplicates for each sample were converted in binary masks, then analyzed with directionality plugin of ImageJ software (that indicates the amount of structures in a given direction). To quantify the shape of enclosed hSIOs, at least 9 fluorescence images of independent biological triplicates for each sample were converted in binary masks, then analyzed with measure plugin of ImageJ software to quantify the Feret's angle (the angle between the longest distance of the axis of any two points along the selection boundary (Feret's diameter) and a line parallel to the x-axis of the image).

[3] = system: mCherry+FBs; settings: for organization of donor mCherry+FBs: under epimysium, 21 days
Description: (§2) Mice were anaesthetized using i.p. injection of Zoletil® 50/50 (40 mg/kg) and Rompun® 2% Xilazina (5 mg/kg) in physiologic solution. Induction of deep surgical anaesthesia was confirmed by absence of reaction to hind foot pinch. The surgical procedure underwent in aseptic conditions (skin preparation, sterilized instruments, gloves and drapes). […] For blood flow analysis, Rhodamine B isothiocyanate-Dextran (Sigma, R9379) was injected in tail vein at 50 mg/mL in physiologic solution. When required, skin wound was closed with Vicryl 6-0 suture and no movement or space restriction were applied to animals after treatments. At the required time point, animals were deeply anesthetized, subjected to stereomicroscope and/or 2P intravital imaging, then sacrificed for tissues collection.

[4] = system: HUVEC cells; settings: seeded on hydrogels
Description: HUVEC were transduced with a lentiviral vector encoding for eGFP (3) and cultured in Endothelial Growth Media (EGM, Lonza). […] After culture, cells were fixed in 4% (w/v) paraformaldehyde (PFA, Sigma-Aldrich) in PBS for 7 min at room temperature and maintained at 4° C. in PBS until use. […] After culture, cells were fixed in 4% (w/v) paraformaldehyde (PFA, Sigma-Aldrich) in PBS for 7 min at room temperature and maintained at 4° C. in PBS until use.

[5] = system: Fibroblasts (FBs); settings: ΔZ up to 150 μm, interspace down to 10 μm
Description: For 3D cell laden culture, 10^4 cells were seeded into Matrigel, or Matrigel or CMMC-Gel exposed to UV light for 3 minutes at an irradiation distance of 3 millimeters, located in a 24 multiwell culture dish, cultured for 2 days at 37° C. and 5% CO2 in cell incubator before performing cell viability assay as described above. […] 2P-cell laden constructs were analyzed by imaging or AFM as described above.

[6] = system: skeletal muscle; settings: GFP+MuSC/mCherry+FB-laden, i3D bioprinted
Description: as §2
ImageJ software were used for adjustments of levels and contrast, maximum and standard deviation intensity projections, 3D reconstructions and thresholding to create binary mask used for directionality and ferret angle measurements. To quantify the directionality of i3D bioprinted cells, at least 9 fluorescence images of independent biological triplicates for each sample were converted in binary masks, then analyzed with directionality plugin of ImageJ software (that indicates the amount of structures in a given direction). […]

[7] = system: human small intestinal organoids (hSIOs); format: cell-based; settings: open square-box hydrogel, up to 8 days of culture
Description: as §1

[8] = Single-photon absorption spectra analysis of coumarin derivatives; format: physicochemical
Description: Table 1, below, reports the absorbance spectra analysis of selected coumarin derivatives dissolved in PBS at pH 7.4, the maximum single photon absorption wavelengths in specific solvents are indicated.
Selected coumarin derivatives were dissolved in DMSO at a concentration of 5 mg/ml and diluted 1:500 in PBS, pH 7.4. The absorption spectra were recorded on an Evolution 201 UV-Vis spectrophotometer (Thermo Fisher Scientific, Waltham, Mass., USA) in the wavelength range of 250-450 nm.

Compound: 7-(carboxymethoxy)-4-methylcoumarin-gelatin [CMMC-Gel]
elastic modulus with increasing irradiation time [1]: increases to asymptotic values

Compound: 7-hydroxycoumarin-3-carboxamide-gelatin [HCC-Gel]
cell directionality of MuSC ([2]; cuboid-shaped structures): randomly oriented
cell directionality of MuSC ([2]; elongated-shaped structures): oriented along major axis of the 3D structures
myotube formation ([2]; parallelepiped-shaped structures, 10 days of culture): support the formation of aligned multinucleated myotubes
localization of donor mCherry+FBs ([3]; intra-dermal injection and i3D bioprinting across epidermis, 14 days): Elongated localization
organization of donor mCherry+FBs ([3]; i3D bioprinted parallelepiped-shaped constructs): elongated clusters
organization of donor mCherry+FBs ([3]; injected only (no i3D bioprinting)): rounded clusters
adhesion and culture of HUVEC cells [4]: supported adhesion and culture
adhesion of GFP FBs to parallelepiped-shaped hydrogels [5]: efficiently adhere
de novo skeletal muscle tissue formation ([6]; 7 days): supports de novo skeletal muscle tissue formation
organization of donor GFP cells ([6]; one week): confined bundle of elongated GFP cells
columnar epithelium of enclosed hSIOs [7]: well-developed columnar epithelium

Compound: Cc1c(CC(=O)O)c(=O)oc2cc(N)ccc12 [7-Amino-4-methyl-3-coumarinylacetic acid]
Abs λ ([8]; Solvent: Methanol): 340 nm

Compound: Cc1cc(=O)oc2cc(OCC(=O)O)ccc12 [7-Carboxymethoxy-4-methylcoumarin]
Abs λ ([8]; Solvent: Ethanol): 321 nm

Compound: O=c1cc(C(F)(F)F)c2ccc(O)cc2o1 [7-Hydroxy-4-(trifluoromethyl)coumarin]
Abs λ ([8]; Solvent: Ethanol): 383 nm

More lines, now with the values ahead:

Abs λ ([8]; Solvent: 95% Ethanol): 322 nm
Compound: Cc1cc(=O)oc2cc(O)ccc12 [7-Hydroxy-4-methylcoumarin]

Abs λ ([8]; solvent not given): 413 nm
Compound: O=C(ON1C(=O)CCC1=O)c1cc2ccc(O)cc2oc1=O [7-Hydroxycoumarin-3-carboxylic acid N-succinimidyl ester]

Abs λ ([8]; Solvent: 95% Ethanol): 325 nm
Compound: O=c1ccc2ccc(O)cc2o1 [7-Hydroxycoumarin]

Abs λ ([8]; Solvent: Ethanol): 403 nm
Compound: CCOC(=O)c1cc2ccc(O)cc2oc1=O [Ethyl 7-Hydroxycoumarin-3-carboxylate]
